Here are results for three compounds from US8980899B2, “Methods of inhibiting Ire1” (The Regents of the University of California, priority 2009, dated 2015).

Assay [1] has as its system Ire1 (XBP-1 YFP reporter in IMR90 cells). The experiment in a line: Cell-based IRE1 inhibition assay with human fibroblasts (IMR90), XBP-1 YFP reporter. As to conditions: compound 2 uM, 8 hrs. How it is done: FIG. 6 depicts histogram results of cell-based Ire1 inhibition assay employing IMR90 human diploid fibroblastic cell line. […] Induction of XBP-1 YFP reporter was assayed by fluorescence microscopy. See Example 6. Test compounds (left to right): DMSO; Tg; bortezomib; MG132; Irestatin; AD71c; AD73c; AD58; AD59. Ordinate: relative fluorescence (proportional to Ire1 activity.)
A cell-based assay of Ire1 inhibition was conducted on human diploid fibroblastic cells (IMR90) expressing an XBP-1 YFP (yellow fluorescent protein) reporter. The effect of test compound or control on UPR induction was assayed by fluorescence microscopy to measure the fluorescence of YFP expressed in a Ire1-dependent manner. The XBP1-YFP reporter only produces YFP after a frameshift produced by splicing of its intron by activated IRE1. As known in the art, higher fluorescence intensity means higher Ire1 and UPR activity. Conversely, lower fluorescence intensity means inhibitions of Ire1 and UPR.
IMR90 stable retroviral transductants expressing an XBP-1 YTP reporter were plated in a 96 well clear bottom plate and allowed to recover overnight (80% confluency). […] Induction of the XBP1-YFP reported was assayed by fluorescence microscopy (GE Healthcare IN Cell Analyzer 2000). The number of YFP cells and the total number of cells, as judged by nuclear staining (Hoechst) were counted in each well. […]

The target of a further assay is T1, yIre1 (Saccharomyces cerevisiae, UniProt P32361).
T1 sequence (P32361 19-1115): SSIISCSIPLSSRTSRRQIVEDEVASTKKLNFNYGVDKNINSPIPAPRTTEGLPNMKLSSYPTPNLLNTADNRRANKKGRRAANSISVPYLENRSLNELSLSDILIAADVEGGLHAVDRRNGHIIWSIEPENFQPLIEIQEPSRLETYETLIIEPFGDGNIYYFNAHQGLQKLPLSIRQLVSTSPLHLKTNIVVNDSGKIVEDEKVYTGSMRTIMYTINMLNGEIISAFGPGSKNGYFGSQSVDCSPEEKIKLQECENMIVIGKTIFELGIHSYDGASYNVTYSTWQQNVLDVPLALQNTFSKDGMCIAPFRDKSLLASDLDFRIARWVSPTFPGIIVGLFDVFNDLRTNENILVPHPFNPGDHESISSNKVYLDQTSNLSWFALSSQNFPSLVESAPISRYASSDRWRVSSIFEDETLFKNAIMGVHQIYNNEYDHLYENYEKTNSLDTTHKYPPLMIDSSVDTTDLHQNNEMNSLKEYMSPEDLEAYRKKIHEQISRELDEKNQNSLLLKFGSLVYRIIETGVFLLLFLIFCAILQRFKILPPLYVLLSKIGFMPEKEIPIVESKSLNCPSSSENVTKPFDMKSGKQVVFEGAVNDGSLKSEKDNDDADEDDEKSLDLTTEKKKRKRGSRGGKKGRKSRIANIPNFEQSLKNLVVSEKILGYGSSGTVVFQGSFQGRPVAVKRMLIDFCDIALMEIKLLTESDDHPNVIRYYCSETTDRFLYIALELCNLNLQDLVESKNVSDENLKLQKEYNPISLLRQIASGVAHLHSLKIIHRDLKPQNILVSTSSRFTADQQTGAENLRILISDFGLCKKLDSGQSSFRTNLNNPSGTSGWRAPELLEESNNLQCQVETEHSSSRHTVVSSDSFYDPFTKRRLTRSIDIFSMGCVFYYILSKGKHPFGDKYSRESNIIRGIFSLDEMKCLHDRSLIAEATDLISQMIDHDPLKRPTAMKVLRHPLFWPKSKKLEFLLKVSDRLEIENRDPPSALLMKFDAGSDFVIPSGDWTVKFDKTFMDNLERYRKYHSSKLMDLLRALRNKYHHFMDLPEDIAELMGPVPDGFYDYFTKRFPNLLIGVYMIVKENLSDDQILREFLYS
The experiment in a line: RNase cleavage assay (yIre1 activation). The class given is biochemical, yeast. Particulars: yIre1 RNA cleavage, 30° C., 2 mM ADP; Control (no inhibitor) 0.000504. How it is done: RNA cleavage reactions were conducted at 30° C. in buffer containing 20 mM HEPES (pH 7.5), 70 mM NaCl, 2 mM ADP (pH 7.0), 2 mM Mg(OAc)2, 5 mM DTT, 5% glycerol, less than 1 nM ^32p-labeled RNA substrate, and 3 nM-[…] Ire1. Reaction solutions and buffers were designed using Biochem Lab Solutions 3.5. Reactions were prepared such that 1 μl of RNA was added to 9 μl of pre-warmed reaction mixture containing all components except RNA. Typically, 3-10 minute time courses were collected starting from 5 seconds for the first time point. At time intervals, 1 μl of solution was withdrawn from each reaction and mixed with 6 μl stop solution containing 10 M urea, 0.1% SDS, 0.1 mM EDTA, 0.05% xylene cyanol, and 0.05% bromophenol blue. The samples were separated by a denaturing 10% PAGE and exposed on a phosphor storage screen. The screens were scanned on a Storm or a Typhoon instrument and quantified using ImageQuant 5.0 or GelQuant.NET 1.4 programs. The data were plotted and fit in SigmaPlot 6.0.

The next assay has as its target hIre1 (Homo sapiens, UniProt O75460). The assay is described as follows: Titrations of Ire1 inhibitors to measure Ki using 1 μM hIre1. The class given is biochemical. As to conditions: 1 μM hIre1, 5′-32p-HP21, 30° C. How it is done:
Recombinant human Ire1-alpha (1 μM f/c) was mixed with reaction buffer, inhibitor solution in DMSO, and ^32P-labeled RNA substrate having sequence 5′-UGCACCUCUGCAGCAGGUGCA (SEQ ID NO:1). Reactions were conducted at 30° C. and initiated by adding the RNA to reaction pre-mix containing all the components minus the RNA. The final reaction contained: 20 mM HEPES pH 7, 70 mM NaCl, 2 mM MgCl2, 5% glycerol, 4 mM DTT, 10% DMSO, 1 μM Ire1 and <1 nM 32P-labeled RNA. (The reaction mixture may be modified by using different components or concentrations, different RNA substrate, or different Ire1 protein construct.)
At time intervals (0 seconds, ˜10 seconds, ˜30 seconds, and ˜3 minutes), 1 μl aliquots of reaction mixture were taken and quenched in 10 M Urea, 0.1% SDS. Samples were analyzed by denaturing polyacrylamide gel electrophoresis and quantified using Typhoon phosphorImager.
Inhibition was measured by the extent of RNA cleavage slowdown in the presence of inhibitor (0.3-100 μM) compared to reaction containing no inhibitors.

Assay [2] concerns the target Recombinant human Ire1-alpha (Homo sapiens, UniProt O75460). The assay is described as follows: In vitro inhibition assay, cleavage of 32P-stem-loop RNA by human Ire1. Format: biochemical. Particulars: in vitro cleavage of 32P-stem-loop RNA by human Ire1, AD series; Control (no inhibitor) 8.8310e−3. How it is done:
Recombinant human […]) was mixed with reaction buffer, inhibitor solution in DMSO, and ^32P-labeled RNA substrate having sequence 5'-[…] NO:1). Reactions were conducted at 30° C. and initiated by adding the RNA to reaction pre-mix containing all the components minus the RNA. […] (The reaction mixture may be modified by using different components or concentrations, different RNA substrate, or different Ire1 protein construct.) At time intervals (0 seconds, 10 seconds, 30 seconds, and 3 minutes), 1 μl aliquots of reaction mixture were taken and quenched in 10 M Urea, 0.1% SDS. Samples were analyzed by denaturing polyacrylamide gel electrophoresis and quantified using Typhoon phosphorImager. […] Reactions with Irestatin and exemplary compounds were conducted analogously. Irestatin was a gift obtained from the SPECS screen available as 5 mM solution in DMSO at UCSF small molecule discovery center.

For assay [3], the system named is Ire1 (XBP-1 luciferase reporter in MEFS). The assay is described as follows: Cell-based IRE1 inhibition assay with mouse embryonic fibroblasts, XBP-1 luciferase reporter. Particulars: compound 5 uM, 8 hrs. How it is done:
FIG. 5 depicts histogram results of cell-based Ire1 inhibition assay in mouse embryonic fibroblasts (MEFS). Primary MEFS isolated from a transgenic mouse expressing an XBP1 luciferase reporter were incubated with either thapsigargin (Tg) or tunicamycin (Tm) in the absence or presence of test compound or control. See Example 5. Treatment order in histogram (left to right): no compound, AD73c at 5 uM, mitoxan (10 uM). Incubation conditions (left to right): DMSO, Tg (600 nM), Tm (2.6 ug/mL). Legend: RL: relative luminosity (arbitrary units); DMSO (no fill); Tg (diagonal stripe); Mitoxan (diamond fill).
A cell-based assay of Ire1 inhibition was conducted on mouse embryonic fibroblasts (MEFS) isolated from a transgenic mouse expressing an XBP-1 luciferase reporter (Riken Research, Japan). The XBP-1 luciferase reporter produces a frameshift and production of luciferase only after splicing of the intron by activated IRE1. […]
Primary MEFs expressing an XBP1 luciferase reporter were plated in a 96 well white plate and allowed to recover overnight (80% confluency). […] Luciferase activity was measured by the additional of 50 uL of One-Glo™ Luciferase Assay System (Promega), and the relative luminescence was quantitated using a luminometer (Analyst).
As depicted in the histogram of FIG. 5, the luminescence of luciferase expressed in Ire1-dependent assay was measured to assess Ire1 and UPR activity. […]

hIre1, sequence (O75460 19-977): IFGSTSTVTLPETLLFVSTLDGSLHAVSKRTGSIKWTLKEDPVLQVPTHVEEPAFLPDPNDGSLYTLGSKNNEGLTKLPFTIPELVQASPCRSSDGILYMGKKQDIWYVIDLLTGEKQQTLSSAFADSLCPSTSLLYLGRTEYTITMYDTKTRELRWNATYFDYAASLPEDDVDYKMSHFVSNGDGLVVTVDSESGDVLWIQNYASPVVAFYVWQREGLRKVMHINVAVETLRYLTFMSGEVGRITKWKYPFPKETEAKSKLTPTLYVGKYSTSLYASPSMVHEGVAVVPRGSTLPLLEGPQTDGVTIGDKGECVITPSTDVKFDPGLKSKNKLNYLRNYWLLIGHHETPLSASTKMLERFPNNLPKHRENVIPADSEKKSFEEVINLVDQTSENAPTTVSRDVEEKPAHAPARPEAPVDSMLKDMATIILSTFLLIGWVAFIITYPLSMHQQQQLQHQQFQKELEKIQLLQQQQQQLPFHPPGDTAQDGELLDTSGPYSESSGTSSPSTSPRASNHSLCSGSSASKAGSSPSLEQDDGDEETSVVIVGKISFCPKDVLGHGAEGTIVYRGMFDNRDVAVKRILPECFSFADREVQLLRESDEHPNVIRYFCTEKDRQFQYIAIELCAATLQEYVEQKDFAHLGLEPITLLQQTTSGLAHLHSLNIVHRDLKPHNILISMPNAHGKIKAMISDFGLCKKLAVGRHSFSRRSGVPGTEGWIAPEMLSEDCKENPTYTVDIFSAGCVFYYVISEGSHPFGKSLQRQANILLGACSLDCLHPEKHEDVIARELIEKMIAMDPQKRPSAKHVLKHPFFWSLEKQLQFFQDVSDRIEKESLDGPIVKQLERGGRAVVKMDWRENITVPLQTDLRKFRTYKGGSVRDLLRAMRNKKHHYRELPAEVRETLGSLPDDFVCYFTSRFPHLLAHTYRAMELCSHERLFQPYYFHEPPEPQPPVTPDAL
Recombinant human Ire1-alpha, sequence (O75460 19-977): as above

Turning to `CC(C)n1nc(-c2ccc(NC(=O)Nc3ccccc3)cc2)c2c(N)ncnc21` [AD58], the “inhibition of UPR (XBP-1 YFP reporter) induced by Tg” value in assay [1] is given as “inhibit UPR”.

For the compound `Cn1nc(-c2ccc(NC(=O)Nc3cccc(C(F)(F)F)c3)cc2)c2c(N)ncnc21` [AD59, 1-(4-(4-amino-1-methyl-1H-pyrazolo[3,4-d]pyrimidin-3-yl)phenyl)-3-(3-(trifluoromethyl)phenyl)urea], the “inhibition of UPR (XBP-1 YFP reporter) induced by Tg” value in assay [1] is given as “even more strongly”. In addition, the Ire1 activity came out at 0.0001 on yIre1 and 3.0550e−3 in assay [2]. At hIre1, the Ki is around 1000 nM.

Compound `Nc1ncnc2c1c(-c1ccc(NC(=O)Nc3cccc(C(F)(F)F)c3)cc1)nn2[C@@H]1CCN(C(=O)Nc2cccc(C(F)(F)F)c2)C1` [AD73c] returned a rate suppression on hIre1 of 100 fold. Further, the Ire1 activity in assay [2] was 2.9310e−4. Further, the “inhibition of XBP1 luciferase induction by thapsigargin (Tg)” value in assay [3] (Tg 600 nM) is reported as “strongly inhibit”. Besides, the “inhibition of XBP1 luciferase induction by tunicamycin (Tm)” value in assay [3] (Tm 2.5 ug/mL) is given as “strongly inhibit”.
